Measured values reported in patent publication US10822383B2, “Polypeptides capable of producing glucans having alpha-1,2 branches and use of the same” (E I DU PONT DE NEMOURS AND COMPANY, priority 2015, dated 2020).

Legend:
[1] = Alpha-1,2 branching activity of GTFJ18 / GTFJ18T1 on a glucan backbone (NMR linkage profile of product); format: biochemical; details: for alpha-1,2 linkages in the product of the branching reaction / alpha-1,6 linkages in the product of the branching reaction: 10% (v/v) crude cell extract, 40 g/L sucrose, 22 hours, NMR
Description: The alpha-1,2 branching activities of each enzyme (GTFJ18 or GTFJ18T1) were individually tested on the glucan product of the glucosyltransferase, GTF5604, which is derived from Streptococcus criceti HS-6 (GENBANK® Acc. No. WP_004226213.1, old gi: 357235604) and disclosed in International Pat. Appl. Publ. No. WO2015/183714 (also referred to therein as SG1018 glucosyltransferase or GtfHS6). GTF5604 (SEQ ID NO:33) has 1338 amino acids with the N-terminal 36 amino acids deduced as its signal peptide by the SignalP 4.0 program. The native nucleotide sequence (positions 1289627-1293643 of GENBANK Acc. No. NZ_AEUV02000002.1) encoding full length GTF5604 (SEQ ID NO:33) including its native signal peptide was synthesized by GenScript and cloned into the SpeI and HindIII sites of the replicative Bacillus expression plasmid pHYT (Takara Bio Inc., Otsu, Japan) under the B. subtilis aprE promoter. The construct was first transformed into E. coli DH10B and selected on ampicillin (100 μg/mL) plates. The confirmed clone, pDCQ918, was then transformed into Bacillus subtilis strain BG6006 (amyE::xylRPxylAcomK-ermC, degUHy32, oppA, ΔspoIIE3501, ΔaprE, ΔnprE, Δepr, ΔispA, Δbpr, Δvpr, ΔwprA, Δmpr-ybfJ, ΔnprB) and selected on tetracycline (12.5 μg/mL) plates, after which the transformed strain, termed as SG1018, was grown in LB containing 10 μg/mL tetracycline first, followed by subculturing into Grant's II medium containing 12.5 μg/mL tetracycline and growth at 37° C. for 2-3 days. The cultures were spun at 15,000×g for 30 min at 4° C. and the supernatant was filtered through 0.22-μm filters. A glucan synthesis reaction was set up containing 10% (v/v) of the SG1018 supernatant with 100 g/L sucrose, 10 mM sodium citrate pH 5 and 1 mM CaCl2. […] The glucan synthesis reaction was subjected to heat inactivation at 95° C. for 30 min.
A branching reaction was set up with 70% (v/v) of the heat-inactivated glucan synthesis reaction. The enzyme being tested for branching activity off of the above glucan product, GTFJ18 or GTFJ18T1, was provided as 10% (v/v) of the above-prepared crude cell extract from EC0059 or EC0059T1, respectively, with 40 g/L sucrose. Each branching reaction was incubated at 37° C. or 30° C. for 22 hours and the products were analyzed by HPLC for sucrose consumption and NMR for linkage profile.
NMR data were acquired on an Agilent DD2 spectrometer (Agilent Technologies, Inc., Santa Clara, Calif.) operating at 500 MHz for ^1H using a 5-mm cryogenic triple-resonance pulsed-field gradient probe. Water suppression was obtained by carefully placing the observe transmitter frequency on resonance for the residual water signal in a “presat” experiment, and then using the first slice of a NOESY experiment with a full phase cycle (multiple of 32) and a mix time of 10 ms. One-dimensional ^1H spectra were acquired with a spectral width of 6410 Hz, acquisition time of 5.1 s, 65536 data points, 4 s pre-saturation and a 90-degree observe pulse. Signal averaging typically involved accumulation of 64 scans. Sample temperature was maintained at 25° C.
Liquid samples were prepared by adding either 50 or 100 μL of completed branching reactions to a 5-mm NMR tube along with 60 μL of D2O containing 12.4 mM 4,4-dimethyl-4-silapentane-1-sulfonic acid sodium salt (DSS) as an internal chemical shift reference, and the balance (450 or 400 μL) of D2O for a total volume of […]. The DSS methyl resonance was set to 0 ppm. […]

[2] = Alpha-1,2 branching reaction with GTF9905 on products of the GTF8117 reaction; format: biochemical; details: 1.13 U/mL GTF9905, 175 g/L sucrose, 30° C., 76.2 h
Method: First, a reaction was performed to prepare glucan that was used in the second part of this Example as a substrate for 1,2-branching enzyme. A reaction mixture (20 mL) comprised of sucrose (488 g/L) and GTF8117 (Example 4, 9.4 U/mL) was adjusted to pH 5.5 with 6.0 N hydrochloric acid and stirred at 47° C. Aliquots were withdrawn at predetermined times and quenched by heating at 90° C. for 20 min. The resulting heat-treated aliquots were centrifuged and the supernatants analyzed by HPLC to determine the concentration of sucrose, glucose, fructose, leucrose, oligosaccharides and polysaccharides. After 6 h, the reaction mixture was heated to 90° C. for 30 minutes, and an aliquot of the heat-treated reaction mixture was centrifuged and the resulting supernatant analyzed for soluble monosaccharides, oligosaccharides and polysaccharides (DP8+) (Table 1). The DP8+ polysaccharides appeared to contain about 100% alpha-1,6 linkages.
A second reaction was then performed to conduct alpha-1,2 branching from the products of the first reaction. […] The resulting heat-treated aliquots were centrifuged and the supernatants analyzed by HPLC to determine the concentration of sucrose, glucose, fructose, leucrose, oligosaccharides and polysaccharides. […]

Molecule	alpha-1,2 linkages in the product of the branching reaction [1] [%]	alpha-1,6 linkages in the product of the branching reaction [1] [%]	alpha-1,2 branching activity (in words) [2]	alpha-1,2 branching activity (in words) ([1]; compared to full length GTFJ18)
GTFJ18: full length glucosyltransferase from Leuconostoc mesenteroides J18, SEQ ID NO:1 (identical to SEQ ID NO:13)	0.6	97		
GTF9905: Fructobacillus tropaeoli glucosyltransferase, SEQ ID NO:4, mature form positions 36-1672			significant alpha-1,2 branching activity	
GTFJ18T1: N-terminal-truncated form of GTFJ18 (first 1664 residues removed), SEQ ID NO:27 (protein, Leuconostoc mesenteroides) VKGDKRTIDGVLYTFDKESGERKGLDSISVLPTNGQYTTDKAQNWYYQVDGENVKGLYTNNDGQLRYFDLTTGVQTKGNFVTIGNDTYYFTKEQGDGQIVSEVVSGHYGTVQLSDNSSAWVYRGANDQILKGLQNINGRLQYFDLTTGAQLKGGAANYDGNLYYFESSDGNLVSKIQQSYSTGNYVTDGDKVTYADEQNNQVTGLALIDDQLQYFDPSDGRQVKNEQVIVDGVTYYFDKNGNGQYLFTNTATMSTNEFAKHSAAYSNDSSSFKNTIDGFLTADTWYRPKDILENGQTWVVSSTNDVRPLITVWWLNKDVQVNYSNFMKQNGLLDTSSQFNLQSDQYDLNVAAQKVQVAIEKRISKEKSTDWLKDLLFEAHEDTPSFVKQQFIWNKDSEYQGQGDAWFQGGYLKYGNNELTPTTNSDYRESGNTLDFLLANDVDNSNPAVQAENLNWLHYLMNFGTITANDDDANFDSIRIDAVDFIDNDAIQRTYDYMRDAYKVDASEDNANKHISLVEAGLDAGTSTIKSDALVESNFREAATLSLANQSGENSSLTNMLQDIDGGQIIADHANNATENESTPNYSIIHAHDKGIQEKVGAAITDVTGADWTNFTDDQLKEGLAAYYQDQRSTNKKYNIYNLPSIYALMLTNKDTVPRVYYGDMYQDDGQYMEKQSIYYDAIVSLMNTRKSYVSGGQTMDVDEHGLLKSVRFGKDAMTASDLGTNETRTEGVGVLVGNDSSLKLNDSDTVTLEMGAAHKNQKYRAALLTTSDGIVTYDADNDAPTIWTDDRGTLTFSNKEIAGQDYTSVQGFANSQVSGYLAVWVPVGASDDQDVRTAALTDANLDDKVLHSNAALDSNLIYEGFSNFQPKATTNDELTNVVIAKNANLFEKWGITSFEMAPQYRSSGDHTFLDSTIDNGYAFTDRYDLGFETPTKYGTDKDLRTAIKALHQSNMQVMADVVDNQVYNLSGQEVVSASRAGVYGNDVSTGFGTQLYAVNSVGGGKYQAQYGGEYLNELKQQYPDLFEAKTYDYWVKNYSNDGSDPYYTLSQNTRKDMPSSEVIKQWSAKYMNGTNVLGNGMGYVLKDWNTGEYFKIGEKNADFITN	18	82		much higher alpha-1,2 branching activity
